# System: platelets
# Assay: Platelet quality, platelets in 100% plasma, amotosalen 30-110 μM, 340 nm device ~7.2 J/cm^2
# Experimental: Multiple donor platelet units in 10000 plasma (5 units, ˜278-391 mL) were pooled and split into 5 units of ˜285 mL each, to be used as an untreated control, or treated with amotosalen at different concentrations, with ultraviolet A illumination using the 340 nm device. Amotosalen was added to a concentration of 30, 60, 90 or 110 μM, then pre-illumination (pre-UV) samples were removed for analysis, and the remainder of the units subjected to illumination at ˜7.2 J/cm^2. Post-illumination (Post-UV) samples were then removed for post-treatment analysis.
smiles,measurement,setting,value
"Cc1oc2c(C)c3oc(=O)cc(C)c3cc2c1COCCN [S-59, 3-(2-aminoethoxymethyl)-2,5,9-trimethylfuro[3,2-g]chromen-7-one]",Glucose,"30 μM, D3",14.9 mmol/L
same,LDH,"30 μM, D3",14.5 LDH IU/10^11 platelets
same,Lactate,"30 μM, D3",6.9 mmol/L
same,Platelet counts,"30 μM, D3",1155 x10^3 cells/μL
same,Platelet lysis,"30 μM, D3",5.22%
same,pCO2 at 37° C.,"30 μM, D3",38.1 mm Hg
same,pH at 22° C.,"30 μM, D3",7.43
same,pH at 37° C.,"30 μM, D3",7.21
same,pO2 at 37° C.,"30 μM, D3",74.6 mm Hg
same,Glucose,"30 μM, D7",11.9 mmol/L
same,LDH,"30 μM, D7",17.4 LDH IU/10^11 platelets
same,Lactate,"30 μM, D7",12.1 mmol/L
same,Platelet counts,"30 μM, D7",1155 x10^3 cells/μL
same,Platelet lysis,"30 μM, D7",6.10%
same,pCO2 at 37° C.,"30 μM, D7",31.2 mm Hg
same,pH at 22° C.,"30 μM, D7",7.32
same,pH at 37° C.,"30 μM, D7",7.10
same,pO2 at 37° C.,"30 μM, D7",78.5 mm Hg
same,Glucose,"30 μM, Post-UV",15.9 mmol/L
same,LDH,"30 μM, Post-UV",15.0 LDH IU/10^11 platelets
same,Lactate,"30 μM, Post-UV",5.7 mmol/L
same,Platelet counts,"30 μM, Post-UV",1115 x10^3 cells/μL
same,Platelet lysis,"30 μM, Post-UV",5.31%
same,pCO2 at 37° C.,"30 μM, Post-UV",50.2 mm Hg
same,pH at 22° C.,"30 μM, Post-UV",7.37
same,pH at 37° C.,"30 μM, Post-UV",7.15
same,pO2 at 37° C.,"30 μM, Post-UV",13.9 mm Hg
same,Glucose,"30 μM, Pre-UV",16.0 mmol/L
same,LDH,"30 μM, Pre-UV",13.7 LDH IU/10^11 platelets
same,Lactate,"30 μM, Pre-UV",5.4 mmol/L
same,Platelet counts,"30 μM, Pre-UV",1200 x10^3 cells/μL
same,Platelet lysis,"30 μM, Pre-UV",4.92%
same,pCO2 at 37° C.,"30 μM, Pre-UV",52.4 mm Hg
same,pH at 22° C.,"30 μM, Pre-UV",7.36
same,pH at 37° C.,"30 μM, Pre-UV",7.14
same,pO2 at 37° C.,"30 μM, Pre-UV",28.6 mm Hg
same,Glucose,"60 μM, D3",15.0 mmol/L
same,LDH,"60 μM, D3",13.9 LDH IU/10^11 platelets
same,Lactate,"60 μM, D3",6.8 mmol/L
same,Platelet counts,"60 μM, D3",1152 x10^3 cells/μL
same,Platelet lysis,"60 μM, D3",5.15%
same,pCO2 at 37° C.,"60 μM, D3",38.1 mm Hg
same,pH at 22° C.,"60 μM, D3",7.43
same,pH at 37° C.,"60 μM, D3",7.20
same,pO2 at 37° C.,"60 μM, D3",65.8 mm Hg
same,Glucose,"60 μM, D7",11.6 mmol/L
same,LDH,"60 μM, D7",36.5 LDH IU/10^11 platelets
same,Lactate,"60 μM, D7",11.8 mmol/L
same,Platelet counts,"60 μM, D7",1041 x10^3 cells/μL
same,Platelet lysis,"60 μM, D7",11.82%
same,pCO2 at 37° C.,"60 μM, D7",31.2 mm Hg
same,pH at 22° C.,"60 μM, D7",7.32
same,pH at 37° C.,"60 μM, D7",7.09
same,pO2 at 37° C.,"60 μM, D7",78.0 mm Hg
same,Glucose,"60 μM, Post-UV",15.9 mmol/L
same,LDH,"60 μM, Post-UV",14.3 LDH IU/10^11 platelets
same,Lactate,"60 μM, Post-UV",5.6 mmol/L
same,Platelet counts,"60 μM, Post-UV",1117 x10^3 cells/μL
same,Platelet lysis,"60 μM, Post-UV",5.10%
same,pCO2 at 37° C.,"60 μM, Post-UV",49.2 mm Hg
same,pH at 22° C.,"60 μM, Post-UV",7.37
same,pH at 37° C.,"60 μM, Post-UV",7.15
same,pO2 at 37° C.,"60 μM, Post-UV",20.4 mm Hg
same,Glucose,"60 μM, Pre-UV",16.2 mmol/L
same,LDH,"60 μM, Pre-UV",13.6 LDH IU/10^11 platelets
same,Lactate,"60 μM, Pre-UV",5.4 mmol/L
same,Platelet counts,"60 μM, Pre-UV",1160 x10^3 cells/μL
same,Platelet lysis,"60 μM, Pre-UV",4.71%
same,pCO2 at 37° C.,"60 μM, Pre-UV",52.4 mm Hg
same,pH at 22° C.,"60 μM, Pre-UV",7.36
same,pH at 37° C.,"60 μM, Pre-UV",7.14
same,pO2 at 37° C.,"60 μM, Pre-UV",32.7 mm Hg
same,Glucose,"90 μM, D3",14.9 mmol/L
same,Lactate,"90 μM, D3",7.3 mmol/L
same,Platelet counts,"90 μM, D3",1157 x10^3 cells/μL
same,Platelet lysis,"90 μM, D3",4.88%
same,pCO2 at 37° C.,"90 μM, D3",40.3 mm Hg
same,pH at 22° C.,"90 μM, D3",7.39
same,pH at 37° C.,"90 μM, D3",7.17
same,pO2 at 37° C.,"90 μM, D3",82.2 mm Hg
same,Glucose,"90 μM, D7",10.6 mmol/L
same,Lactate,"90 μM, D7",13.6 mmol/L
same,Platelet counts,"90 μM, D7",1199 x10^3 cells/μL
same,Platelet lysis,"90 μM, D7",5.42%
same,pCO2 at 37° C.,"90 μM, D7",33.5 mm Hg
same,pH at 22° C.,"90 μM, D7",7.23
same,pH at 37° C.,"90 μM, D7",7.00
same,pO2 at 37° C.,"90 μM, D7",87.9 mm Hg
same,Glucose,"90 μM, Post-UV",15.9 mmol/L
same,Lactate,"90 μM, Post-UV",5.7 mmol/L
same,Platelet counts,"90 μM, Post-UV",1115 x10^3 cells/μL
same,Platelet lysis,"90 μM, Post-UV",5.13%
same,pCO2 at 37° C.,"90 μM, Post-UV",48.5 mm Hg
same,pH at 22° C.,"90 μM, Post-UV",7.37
same,pH at 37° C.,"90 μM, Post-UV",7.15
same,pO2 at 37° C.,"90 μM, Post-UV",24.1 mm Hg
same,Glucose,"90 μM, Pre-UV",15.9 mmol/L
same,Lactate,"90 μM, Pre-UV",5.3 mmol/L
same,Platelet counts,"90 μM, Pre-UV",1165 x10^3 cells/μL
same,Platelet lysis,"90 μM, Pre-UV",4.97%
same,pCO2 at 37° C.,"90 μM, Pre-UV",50.8 mm Hg
same,pH at 22° C.,"90 μM, Pre-UV",7.37
same,pH at 37° C.,"90 μM, Pre-UV",7.14
same,pO2 at 37° C.,"90 μM, Pre-UV",54.6 mm Hg
same,Glucose,"110 μM, D3",14.7 mmol/L
same,LDH,"110 μM, D3",17.0 LDH IU/10^11 platelets
same,Lactate,"110 μM, D3",7.3 mmol/L
same,Platelet counts,"110 μM, D3",1103 x10^3 cells/μL
same,Platelet lysis,"110 μM, D3",5.90%
same,pCO2 at 37° C.,"110 μM, D3",38.6 mm Hg
same,pH at 22° C.,"110 μM, D3",7.40
same,pH at 37° C.,"110 μM, D3",7.18
same,pO2 at 37° C.,"110 μM, D3",69.9 mm Hg
same,Glucose,"110 μM, D7",10.4 mmol/L
same,LDH,"110 μM, D7",16.0 LDH IU/10^11 platelets
same,Lactate,"110 μM, D7",13.8 mmol/L
same,Platelet counts,"110 μM, D7",1153 x10^3 cells/μL
same,Platelet lysis,"110 μM, D7",6.13%
same,pCO2 at 37° C.,"110 μM, D7",31.7 mm Hg
same,pH at 22° C.,"110 μM, D7",7.24
same,pH at 37° C.,"110 μM, D7",7.01
same,pO2 at 37° C.,"110 μM, D7",90.5 mm Hg
same,Glucose,"110 μM, Post-UV",16.0 mmol/L
same,LDH,"110 μM, Post-UV",12.0 LDH IU/10^11 platelets
same,Lactate,"110 μM, Post-UV",5.4 mmol/L
same,Platelet counts,"110 μM, Post-UV",1239 x10^3 cells/μL
same,Platelet lysis,"110 μM, Post-UV",4.63%
same,pCO2 at 37° C.,"110 μM, Post-UV",48.1 mm Hg
same,pH at 22° C.,"110 μM, Post-UV",7.37
same,pH at 37° C.,"110 μM, Post-UV",7.14
same,pO2 at 37° C.,"110 μM, Post-UV",189.7 mm Hg
same,Glucose,"110 μM, Pre-UV",15.9 mmol/L
same,LDH,"110 μM, Pre-UV",12.4 LDH IU/10^11 platelets
same,Lactate,"110 μM, Pre-UV",5.3 mmol/L
same,Platelet counts,"110 μM, Pre-UV",1209 x10^3 cells/μL
same,Platelet lysis,"110 μM, Pre-UV",4.61%
same,pCO2 at 37° C.,"110 μM, Pre-UV",51.8 mm Hg
same,pH at 22° C.,"110 μM, Pre-UV",7.36
same,pH at 37° C.,"110 μM, Pre-UV",7.13
same,pO2 at 37° C.,"110 μM, Pre-UV",88.6 mm Hg
